Tests used:
[1] = target: Delta-type opioid receptor (Mus musculus, UniProt P32300); experiment: In vitro inhibitory activity against delta opioid receptor using mouse vas deferens (MVD) assay; assay type: tissue-based
[2] = target: Mu-type opioid receptor (Cavia porcellus, UniProt P97266); experiment: In vitro inhibitory activity against mu opioid receptor using guinea pig ileum (GPI) assay; assay type: tissue-based
Mu-type opioid receptor, sequence (P97266 whole entry): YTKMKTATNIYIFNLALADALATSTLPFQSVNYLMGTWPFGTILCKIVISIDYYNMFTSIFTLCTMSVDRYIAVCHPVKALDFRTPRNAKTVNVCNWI

Delta-type opioid receptor, sequence (P32300 whole entry): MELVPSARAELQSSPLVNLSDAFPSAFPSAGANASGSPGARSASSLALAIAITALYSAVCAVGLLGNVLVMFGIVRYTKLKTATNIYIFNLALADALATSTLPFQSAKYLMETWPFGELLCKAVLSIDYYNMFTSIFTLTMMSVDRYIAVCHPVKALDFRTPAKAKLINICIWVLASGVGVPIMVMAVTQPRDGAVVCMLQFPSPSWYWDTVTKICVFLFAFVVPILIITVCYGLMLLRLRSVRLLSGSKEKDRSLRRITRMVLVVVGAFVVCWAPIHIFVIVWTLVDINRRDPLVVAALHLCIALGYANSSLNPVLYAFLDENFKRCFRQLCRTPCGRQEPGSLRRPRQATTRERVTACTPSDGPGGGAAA

Compound	IC50 [1] [µM]	IC50 [2] [nM]
CN(C(=O)[C@@H]1CCCN1C(=O)[C@@H](N)Cc1ccc(O)cc1)[C@H](Cc1ccccc1)C(=O)N1CCC[C@@H]1C(N)=O	565	2660
CN(C(=O)[C@@H]1CCCN1C(=O)[C@@H](N)Cc1ccc(O)cc1)[C@H](Cc1ccccc1)C(=O)N1CCC[C@H]1C(N)=O	> 1000	> 100000
CN(C(=O)[C@@H]1CCCN1C(=O)[C@@H](N)Cc1ccc(O)cc1)[C@@H](Cc1ccccc1)C(=O)N1CCC[C@H]1C(N)=O	1.79	170
NC(=O)[C@H]1CCCN1C(=O)[C@@H](Cc1ccccc1)NC(=O)[C@@H]1CCCN1C(=O)[C@@H](N)Cc1ccc(O)cc1	4.81	557
NC(=O)[C@@H]1CCCN1C(=O)[C@@H](Cc1ccccc1)NC(=O)[C@@H]1CCCN1C(=O)[C@@H](N)Cc1ccc(O)cc1	0.594	109
C[C@@H](C(=O)N[C@@H](Cc1ccccc1)C(=O)N1CCC[C@@H]1C(N)=O)N(C)C(=O)[C@@H](N)Cc1ccc(O)cc1	0.202	30.6
C[C@H](NC(=O)[C@@H](N)Cc1ccc(O)cc1)C(=O)N[C@@H](Cc1ccccc1)C(=O)N1CCC[C@@H]1C(N)=O	> 100	
NC(=O)[C@H]1CCCN1C(=O)[C@H](Cc1ccccc1)NC(=O)[C@@H]1CCCN1C(=O)[C@@H](N)Cc1ccc(O)cc1	1.51	28.7
CN(C(=O)[C@@H]1CCCN1C(=O)[C@@H](N)Cc1ccc(O)cc1)[C@@H](Cc1ccccc1)C(=O)N1CCC[C@@H]1C(N)=O	1.25	20.7
NC(=O)[C@@H]1CCCN1C(=O)[C@H](Cc1ccccc1)NC(=O)[C@@H]1CCCN1C(=O)[C@@H](N)Cc1ccc(O)cc1 [MORPHICEPTIN]	3.69	552

Source: ChEMBL document CHEMBL1126617, “A topochemical approach to explain morphiceptin bioactivity” (J Med Chem, 1993)
